Laboratory results from patent US6784137B2, “6-aryl-4-aminopicolinates and their use as herbicides” (Dow AgroSciences LLC, priority 2001, dated 2004).
Read-outs that look alike come from different tables or passages of the source. One block for each compound: values may come before it.

Tests used:
[1] = system: Barnyardgrass (Echinochloa crus-galli); experiment: Postemergence herbicidal activity, greenhouse spray; assay type: in vivo; details: visual score after 2 weeks; for pest or weed control at 500 ppm / pest or weed control at 125 ppm: Echinochloa crus-galli, post-emergence, 336 h, read-out: Post-emergent % control ECHCG
Procedure: (§1) When required to ensure good germination and healthy plants, a fungicide treatment and/or other chemical or physical treatment was applied. The plants were grown for 7-21 days in a greenhouse with an approximate 15 hr photoperiod which was maintained at about 23-29° C. during the day and 22-28° C. during the night. Nutrients and water were added on a regular basis and supplemental lighting was provided with overhead metal halide 1000-Watt lamps as necessary. The plants were employed for testing when they reached the first or second true leaf stage. A weighed amount, determined by the highest rate to be tested, of each test compound was placed in a 20 mL glass vial and was dissolved in 4 mL of a 97:3 v/v (volume/volume) mixture of acetone and dimethyl sulfoxide (DMSO) to obtain concentrated stock solutions. […] The concentrated stock solutions obtained were diluted with an aqueous mixture containing acetone, water, isopropyl alcohol, DMSO, At plus 411 F crop oil concentrate, and Triton X-155 surfactant in a 48.5:39:10:1.5:1.0:0.02 v/v ratio to obtain spray solutions of known concentration. The solutions containing the highest concentration to be tested were prepared by diluting 2 mL aliquots of the stock solution with 13 mL of the mixture and lower concentrations were prepared by serial dilution of the stock solution. Approximately 1.5 mL aliquots of each solution of known concentration were sprayed evenly onto each of the test plant pots using a DeVilbiss atomizer driven by compressed air pressure of 2 to 4 psi (140 to 280 kiloPascals) to obtain thorough coverage of each plant. Control plants were sprayed in the same manner with the aqueous mixture. […] The treated plants and control plants were placed in a greenhouse as described above and watered by sub-irrigation to prevent wash-off of the test compounds.

[2] = system: Yellow nutsedge (Cyperus esculentus); experiment: as above; assay type: in vivo; details: visual score after 2 weeks; for pest or weed control at 500 ppm / pest or weed control at 125 ppm: Cyperus, post-emergence, 336 h, read-out: Post-emergent % control CYPES
Procedure: as §1

[3] = system: Cocklebur (Xanthium strumarium); experiment: as above; assay type: in vivo; details: visual score after 2 weeks; for pest or weed control at 500 ppm / pest or weed control at 125 ppm: Xanthium strumarium, post-emergence, 336 h, read-out: Post-emergent % control XANST
Procedure: as §1

[4] = system: Lambsquarter (Chenopodium album); experiment: as above; assay type: in vivo; details: visual score after 2 weeks; for pest or weed control at 500 ppm / pest or weed control at 125 ppm: Chenopodium album, post-emergence, 336 h, read-out: Post-emergent % control CHEAL
Procedure: as §1

[5] = Table 1, rate 500 ppm, 0 no injury, 100 complete kill

melting point: 108 to 109 °C
Compound: COC(=O)c1nc(-c2ccc3ccccc3c2)cc(N)c1Cl [Compound 47, Methyl 4-amino-3-chloro-6-(2-naphthyl)pyridine-2-carboxylate]
pest or weed control at 500 ppm ([1]; Table 1, rate 500 ppm): 80%
pest or weed control at 500 ppm ([2]; Table 1, rate 500 ppm): 0%
pest or weed control at 500 ppm [3, 5]: 90%
pest or weed control at 500 ppm ([4]; Table 1, rate 500 ppm): 90%

melting point: 176 °C
Compound: Nc1cc(-c2cc3ccccc3s2)nc(C(=O)O)c1Cl [Compound 224, 4-Amino-3-chloro-6-(2-benzothienyl)pyridine-2-carboxylic acid]
pest or weed control at 125 ppm ([1]; Table 1, rate 125 ppm): 85%
pest or weed control at 125 ppm ([2]; Table 1, rate 125 ppm): 30%
pest or weed control at 125 ppm ([3]; Table 1, rate 125 ppm): 100%
pest or weed control at 125 ppm ([4]; Table 1, rate 125 ppm): 100%

melting point: 110 to 114 °C
Compound: Nc1cc(-c2ccc(Cl)nc2)nc(C(=O)O)c1Cl [Compound 225, 4-Amino-3-chloro-6-(6-chloro-3-pyridinyl)pyridine-2-carboxylic acid]
pest or weed control at 125 ppm ([1]; Table 1, rate 125 ppm): 40%
pest or weed control at 125 ppm ([2]; Table 1, rate 125 ppm): 60%
pest or weed control at 125 ppm ([3]; Table 1, rate 125 ppm): 90%
pest or weed control at 125 ppm ([4]; Table 1, rate 125 ppm): 70%

Compound: COC(=O)c1nc(-c2ccccc2F)cc(N)c1Cl [Compound 33, Methyl 4-amino-3-chloro-6-(2-fluorophenyl)pyridine-2-carboxylate]
pest or weed control at 500 ppm ([1]; Table 1, rate 500 ppm): 30%
pest or weed control at 500 ppm ([2]; Table 1, rate 500 ppm): 10%
pest or weed control at 500 ppm [3, 5]: 100%
pest or weed control at 500 ppm ([4]; Table 1, rate 500 ppm): 100%

Compound: COC(=O)c1nc(-c2ccc(Cl)s2)cc(N)c1Cl [Compound 98, Methyl 4-amino-3-chloro-6-(5-chloro-2-thienyl)pyridine-2-carboxylate]
pest or weed control at 125 ppm ([1]; Table 1, rate 125 ppm): 50%
pest or weed control at 125 ppm ([2]; Table 1, rate 125 ppm): 70%
pest or weed control at 125 ppm ([3]; Table 1, rate 125 ppm): 90%
pest or weed control at 125 ppm ([4]; Table 1, rate 125 ppm): 90%

Compound: Nc1c(F)c(C(=O)O)nc(-c2ccc(C(F)(F)F)cc2)c1F [Compound 200, 4-Amino-3,5-fluoro-6-(4-(trifluoromethyl)phenyl)pyridine-2-carboxylic acid]
Post-emergent % control ECHCG ([1]; Table 1, rate 500 ppm): 95%
Post-emergent % control ECHCG ([1]; Table 2, rate 125 ppm): 70%
Post-emergent % control CYPES ([2]; Table 1, rate 500 ppm): 90%
Post-emergent % control CYPES ([2]; Table 2, rate 125 ppm): 90%
Post-emergent % control XANST [3, 5]: 100%
Post-emergent % control XANST ([3]; Table 2, rate 125 ppm): 90%
Post-emergent % control CHEAL ([4]; Table 1, rate 500 ppm): 95%
Post-emergent % control CHEAL ([4]; Table 2, rate 125 ppm): 80%

Compound: COC(=O)c1nc(-c2ccc(C)nn2)cc(N)c1Cl [Compound 121, Methyl 4-amino-3-chloro-6-(3-(6-methyl)pyridazinyl)pyridine-2-carboxylate]
Post-emergent % control ECHCG ([1]; Table 2, rate 125 ppm): 80%
Post-emergent % control CYPES ([2]; Table 2, rate 125 ppm): 80%
Post-emergent % control XANST ([3]; Table 2, rate 125 ppm): 100%
Post-emergent % control CHEAL ([4]; Table 2, rate 125 ppm): 90%

Compound: Nc1c(Cl)c(C(=O)O)nc(-c2ccc(C(F)(F)F)cc2)c1Cl [Compound 171, 4-Amino-3′,5-dichloro-6-[4-(trifluoromethyl)phenyl]pyridine-2-carboxylic acid]
Post-emergent % control ECHCG ([1]; Table 1, rate 500 ppm): 80%
Post-emergent % control CYPES ([2]; Table 1, rate 500 ppm): 60%
Post-emergent % control XANST [3, 5]: 100%
Post-emergent % control CHEAL ([4]; Table 1, rate 500 ppm): 95%

melting point: 138 to 139 °C
Compound: COC(=O)c1nc(-c2cccs2)cc(N)c1Cl [Compound 106, Methyl 4-amino-3-chloro-6-(2-thienyl)pyridine-2-carboxylate]

melting point: 95 to 97 °C
Compound: COC(=O)c1nc(-c2ccc(CF)cc2)cc(N)c1Cl [Compound 243, methyl 4-amino-3-chloro-6-(4-fluoromethylphenyl)pyridine-2-carboxylate]

melting point: 139 to 140 °C
Compound: COC(=O)c1nc(-c2cc(C(F)(F)F)cc(C(F)(F)F)c2)cc(N)c1Cl [Compound 46, Methyl 4-amino-3-chloro-6-(3,5-bis-(trifluoromethyl)phenyl)pyridine-2-carboxylate]

melting point: 187 to 188 °C
Compound: COC(=O)c1nc(-c2nccs2)cc(NC(C)=O)c1Cl [Compound 103, Methyl 4-acetamido-3-chloro-6-(2-thiazolyl)pyridine-2-carboxylate]

melting point: 121 to 122 °C
Compound: Nc1cc(-c2ccccc2F)nc(C(=O)O)c1Cl [Compound 142, 4-Amino-3-chloro-6-(2-fluorophenyl)pyridine-2-carboxylic acid]

melting point: 195 to 197 °C
Compound: COC(=O)c1nc(-c2nccs2)cc(N)c1Cl [Compound 123, Methyl 4-amino-3-chloro-6-(2-thiazolyl)pyridine-2-carboxylate]

melting point: 196 to 197 °C
Compound: Nc1cc(-c2ccccc2Cl)nc(C(=O)O)c1Cl [Compound 140, 4-Amino-3-chloro-6-(2-chlorophenyl)pyridine-2-carboxylic acid]

melting point: 164 to 165 °C
Compound: Nc1cc(-c2ccc(OC(F)(F)F)cc2)nc(C(=O)O)c1Cl [Compound 174, 4-Amino-3-chloro-6-[4-(trifluoromethoxy)phenyl]pyridine-2-carboxylic acid]

melting point: 142 to 145 °C
Compound: COC(=O)c1nc(-c2ccccn2)cc(N)c1Cl [Compound 109, Methyl 4-amino-3-chloro-6-(2-pyridinyl)pyridine-2-carboxylate]

melting point: 60 to 62 °C
Compound: CCCCOC(=O)c1nc(-c2ccc(C)cc2)cc(N)c1Cl [Compound 249, Butyl 4-amino-3-chloro-6-(4-methylphenyl)pyridine-2-carboxylate]

melting point: 184 to 185 °C
Compound: Nc1cc(-c2nccs2)nc(C(=O)O)c1Cl [Compound 222, 4-Amino-3-chloro-6-(2-thiazolyl)pyridine-2-carboxylic acid]

melting point: 188 °C
Compound: Cc1ccc(-c2cc(N)c(Cl)c(C(=O)O)n2)cc1Cl [Compound 164, 4-Amino-3-chloro-6-(3-chloro-4-methylphenyl)pyridine-2-carboxylic acid]

melting point: 107 to 109 °C
Compound: COC(=O)c1nc(-c2ccc(OC)cc2)c(Cl)c(N)c1Cl [Compound 15, Methyl 4-amino-3,5-dichloro-6-(4-methoxyphenyl)pyridine-2-carboxylate]

melting point: 283 °C
Compound: Nc1cc(-c2nc3ccccc3s2)nc(C(=O)O)c1Cl [Compound 230, 4-Amino-3-chloro-6-(2-benzothiazolyl)pyridine-2-carboxylic acid]

melting point: 233 to 236 °C
Compound: COC(=O)c1nc(-c2ccc(Cl)cc2)c(F)c(N)c1Cl [Compound 14, Methyl 4-amino-3-chloro-5-fluoro-6-(4-chlorophenyl)pyridine-2-carboxylate]

Compound: Nc1c(F)c(-c2ccc(Cl)cc2)nc(C(=O)O)c1Cl [Compound 183, 4-Amino-3-chloro-5-fluoro-6-(4-chlorophenyl)pyridine-2-carboxylic acid]
pest or weed control at 125 ppm ([1]; Table 2, rate 125 ppm): 100%
pest or weed control at 125 ppm ([2]; Table 2, rate 125 ppm): 100%
pest or weed control at 125 ppm ([3]; Table 2, rate 125 ppm): 100%
pest or weed control at 125 ppm ([4]; Table 2, rate 125 ppm): 100%

melting point: 124 to 125 °C
Compound: COC(=O)c1nc(-c2cc(OC)ccc2OC)cc(NC(C)=O)c1Cl [Compound 81, Methyl 4-acetamido-3-chloro-6-(2,5-dimethoxyphenyl)pyridine-2-carboxylate]

melting point: 153 to 154 °C
Compound: COC(=O)c1nc(-c2ccc(OC)c(OC)c2)cc(NC(C)=O)c1Cl [Compound 63, Methyl 4-acetamido-3-chloro-6-(3,4-dimethoxyphenyl)pyridine-2-carboxylate]

melting point: 110 °C (dec.)
Compound: COc1ccc(-c2cc(N)c(Cl)c(C(=O)O)n2)cn1 [Compound 213, 4-Amino-3-chloro-6-(6-methoxy-3-pyridinyl)pyridine-2-carboxylic acid]

melting point: 195 °C
Compound: COC(=O)c1nc(-c2cncnc2)cc(N)c1Cl [Compound 126, Methyl 4-amino-3-chloro-6-(5-pyrimidinyl)pyridine-2-carboxylate]
